The results in this text go back to patent publication US11339171B2, “MDM2 inhibitors” (Gan & Lee Pharmaceuticals, priority 2017, dated 2022).

The subject of assay [1] is human osteosarcoma cell line SJSA-1. In words: Inhibition of proliferation of human osteosarcoma cell line SJSA-1 (DAPI staining, In Cell Analyzer). Particulars: for IC50: Homo sapiens, SJSA-1, 72 h, read-out: IC50 (nM), inhibitory activity on proliferation of human osteosarcoma cell line SJSA-1, SJSA-1, incubated 72 h; for inhibitory effect on human osteosarcoma cell line SJSA-1 compared with positive control compound HDM201: labels are Example numbers, the compounds with S-configuration are meant.

The target in assay [2] is T1, MDM2 (Homo sapiens, UniProt Q00987).
T1 construct: made in house
In words: Inhibition test of MDM2-P53 (GST-MDM2, Biotin-P53, Anti-GST-Tb, SA-XL665). It is filed as binding. The procedure, abridged:
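Compounds, serially diluted 5-fold (twelve concentrations), were shaken for 90 min at 25° C with a mix of GST-MDM2 (4 nM final), Biotin-P53, anti-GST-Tb and SA-XL665. Buffer: 1×PBS, 0.1% BSA, 5 mM DTT, 1 mM AEBSF; signal read on a microplate reader.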

T1 sequence (Q00987 whole entry): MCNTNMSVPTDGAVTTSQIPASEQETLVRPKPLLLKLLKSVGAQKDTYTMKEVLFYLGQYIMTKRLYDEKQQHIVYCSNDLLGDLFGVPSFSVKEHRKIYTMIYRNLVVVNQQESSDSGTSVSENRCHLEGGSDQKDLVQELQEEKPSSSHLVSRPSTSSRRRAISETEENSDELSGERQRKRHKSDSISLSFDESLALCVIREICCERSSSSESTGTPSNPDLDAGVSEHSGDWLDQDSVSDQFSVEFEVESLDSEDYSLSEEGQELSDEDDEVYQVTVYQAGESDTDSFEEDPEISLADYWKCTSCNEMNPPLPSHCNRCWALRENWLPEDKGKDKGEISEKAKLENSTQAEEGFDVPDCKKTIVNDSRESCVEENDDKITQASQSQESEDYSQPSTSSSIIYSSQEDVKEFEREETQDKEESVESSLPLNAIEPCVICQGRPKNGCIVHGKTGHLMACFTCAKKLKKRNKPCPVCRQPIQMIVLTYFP

Turning to `COc1ccc(-c2nc3c(n2C(C)C)[C@]2(C(=O)Nc4cc(Cl)ccc42)N(c2cccc(Cl)c2)C3=O)c(OC)c1` [Example R-36, (R)-6-chloro-5′-(3-chlorophenyl)-2′-(2,4-dimethoxyphenyl)-3′-isopropyl-3′H-spiro[dihydroindole-3,4′-pyrrolo[3,4-d]imidazole]-2,6′(5′H)-dione], the IC50 in assay [1] was 3180 nM.

`COc1cc(C2CC2)ccc1-c1nc2c(n1C(C)C)C1(C(=O)Nc3cc(Cl)ccc31)N(c1cc(Cl)ccc1C)C2=O` (stereo not shown) [Example 86, 6-chloro-5′-(5-chloro-2-methylphenyl)-2′-(4-cyclopropyl-2-methoxyphenyl)-3′-isopropyl-3′H-spiro[dihydroindole-3,4′-pyrrolo[3,4-d]imidazole]-2,6′(5′H)-dione]: the “inhibitory effect on human osteosarcoma cell line SJSA-1 compared with positive control compound HDM201” value in assay [1] is on record as “better”.

Take `COc1nc(C2CC2)ncc1-c1nc2c(n1C(C)C)C1(C(=O)Nc3cc(Cl)ccc31)N(c1cc(Cl)ccc1C)C2=O` (stereo not shown) [Example 121, 6-chloro-5′-(5-chloro-2-methylphenyl)-2′-(2-cyclopropyl-4-methoxypyrimidin-5-yl)-3′-isopropyl-3′H-spiro[dihydroindole-3,4′-pyrrolo[3,4-d]imidazole]-2,6′(5′H)-dione]: in assay [1], the “inhibitory effect on human osteosarcoma cell line SJSA-1 compared with positive control compound HDM201” value is listed as “better”.

As to `CNc1ccc(-c2nc3c(n2C(C)C)C2(C(=O)Nc4cc(Cl)ccc42)N(c2cc(Cl)ccc2C)C3=O)c(OC)c1` (stereo not shown) [Example 25], the “inhibitory effect on human osteosarcoma cell line SJSA-1 compared with positive control compound HDM201” value in assay [1] is “better”.

As for `COc1cc(C2CC2)ccc1-c1nc2c(n1C(C)C)C1(C(=O)Nc3cc(Cl)ccc31)N(c1cc(Cl)cnc1C)C2=O` (stereo not shown) [Example 145, 6-chloro-5′-(5-chloro-2-methylpyridin-3-yl)-2′-(4-cyclopropyl-2-methoxyphenyl)-3′-isopropyl-3′H-spiro[dihydroindole-3,4′-pyrrolo[3,4-d]imidazole]-2,6′(5′H)-dione], the “inhibitory effect on human osteosarcoma cell line SJSA-1 compared with positive control compound HDM201” value in assay [1] was “better”.

In the case of `COc1cc(C2CC2)cc(OC)c1-c1nc2c(n1C(C)C)C1(C(=O)Nc3cc(Cl)ccc31)N(c1cc(Cl)ccc1C)C2=O` (stereo not shown) [Example 108, 6-chloro-5′-(5-chloro-2-methylphenyl)-2′-(4-cyclopropyl-2,6-dimethoxyphenyl)-3′-isopropyl-3′H-spiro[dihydroindole-3,4′-pyrrolo[3,4-d]imidazole]-2,6′(5′H)-dione], in assay [1], the “inhibitory effect on human osteosarcoma cell line SJSA-1 compared with positive control compound HDM201” value is “better”.

As to `COc1cc(N(C)CCO)ccc1-c1nc2c(n1C(C)C)C1(C(=O)Nc3cc(Cl)ccc31)N(c1cc(Cl)ccc1C)C2=O` (stereo not shown) [Example 162, 6-chloro-5′-(5-chloro-2-methylphenyl)-2′-(4-((2-hydroxyethyl)(methyl)amino)-2-methoxyphenyl)-3′-isopropyl-3′H-spiro[dihydroindole-3,4′-pyrrolo[3,4-d]imidazole]-2,6′(5′H)-dione], the “inhibitory effect on human osteosarcoma cell line SJSA-1 compared with positive control compound HDM201” value in assay [1] is reported as “better”.

Consider `COc1ccncc1-c1nc2c(n1C(C)C)[C@@]1(C(=O)Nc3cc(Cl)ccc31)N(c1ccc(F)c(Cl)c1)C2=O` [Example S-59, (S)-6-chloro-5′-(3-chloro-4-fluorophenyl)-3′-isopropyl-2′-(4-methoxypyridin-3-yl)-3′H-spiro[dihydroindole-3,4′-pyrrolo[3,4-d]imidazole]-2,6′(5′H)-dione], for which the IC50 in assay [1] worked out at 263 nM.

In the case of `COc1cc(C(C)C)ccc1-c1nc2c(n1C(C)C)C1(C(=O)Nc3cc(Cl)ccc31)N(c1cc(Cl)ccc1C)C2=O` (stereo not shown) [Example 32, 6-chloro-5′-(5-chloro-2-methylphenyl)-3′-isopropyl-2′-(4-isopropyl-2-methoxyphenyl)-3′H-spiro[dihydroindole-3,4′-pyrrolo[3,4-d]imidazole]-2,6′(5′H)-dione], the “inhibitory effect on human osteosarcoma cell line SJSA-1 compared with positive control compound HDM201” value in assay [1] is listed as “better”.

Consider `COc1nc(C2CC2)ncc1-c1nc2c(n1C(C)C)C1(C(=O)Nc3cc(Cl)ccc31)N(c1cc(Cl)cnc1C)C2=O` (stereo not shown) [Example 159, 6-chloro-5′-(5-chloro-2-methylpyridin-3-yl)-2′-(2-cyclopropyl-4-methoxypyrimidin-5-yl)-3′-isopropyl-3′H-spiro[dihydroindole-3,4′-pyrrolo[3,4-d]imidazole]-2,6′(5′H)-dione], for which the “inhibitory effect on human osteosarcoma cell line SJSA-1 compared with positive control compound HDM201” value in assay [1] is given as “better”.

In the case of `CCN(C)c1ncc(-c2nc3c(n2C(C)C)C2(C(=O)Nc4cc(Cl)ccc42)N(c2cc(Cl)ccc2C)C3=O)c(OC)n1` (stereo not shown) [Example 119, 6-chloro-5′-(5-chloro-2-methylphenyl)-2′-(2-(ethyl(methyl)amino)-4-methoxypyrimidin-5-yl)-3′-isopropyl-3′H-spiro[dihydroindole-3,4′-pyrrolo[3,4-d]imidazole]-2,6′(5′H)-dione], in assay [1], the “inhibitory effect on human osteosarcoma cell line SJSA-1 compared with positive control compound HDM201” value is on record as “better”.

Take `COc1cc(C2CC2)ncc1-c1nc2c(n1C(C)C)C1(C(=O)Nc3cc(Cl)ccc31)N(c1cccc(Cl)c1)C2=O` (stereo not shown) [Example 106, 6-chloro-5′-(3-chlorophenyl)-2′-(6-cyclopropyl-4-methoxypyridin-3-yl)-3′-isopropyl-3′H-spiro[dihydroindole-3,4′-pyrrolo[3,4-d]imidazole]-2,6′(5′H)-dione]: in assay [1], the “inhibitory effect on human osteosarcoma cell line SJSA-1 compared with positive control compound HDM201” value is “better”.

As for `COc1ccc(C#N)cc1-c1nc2c(n1C(C)C)C1(C(=O)Nc3cc(Cl)ccc31)N(c1cc(Cl)ccc1C)C2=O` (stereo not shown) [Example 13, 3-(6-chloro-5′-(5-chloro-2-methylphenyl)-3′-isopropyl-2,6′-dioxo-5′,6′-dihydro-3′H-spiro[dihydroindole-3,4′-pyrrolo[3,4-d]imidazole]-2′-yl)-4-methoxybenzonitrile], the “inhibitory effect on human osteosarcoma cell line SJSA-1 compared with positive control compound HDM201” value in assay [1] is recorded as “better”.

Regarding `COc1cc(C(C)(C)C)ccc1-c1nc2c(n1C(C)C)C1(C(=O)Nc3cc(Cl)ccc31)N(c1cc(Cl)ccc1C)C2=O` (stereo not shown) [Example 101, 2′-(4-(tert-butyl)-2-methoxyphenyl)-6-chloro-5′-(5-chloro-2-methylphenyl)-3′-isopropyl-3′H-spiro[dihydroindole-3,4′-pyrrolo[3,4-d]imidazole]-2,6′(5′H)-dione], the “inhibitory effect on human osteosarcoma cell line SJSA-1 compared with positive control compound HDM201” value in assay [1] is “better”.

The compound `COc1nc(OC(C)C)ncc1-c1nc2c(n1C(C)C)[C@]1(C(=O)Nc3cc(Cl)ccc31)N(c1cc(Cl)cnc1C)C2=O` [Example R-136, (R)-6-chloro-5′-(5-chloro-2-methylpyridin-3-yl)-2′-(2-isopropoxy-4-methoxypyrimidin-5-yl)-3′-isopropyl-3′H-spiro[dihydroindole-3,4′-pyrrolo[3,4-d]imidazole]-2,6′(5′H)-dione] yielded an IC50 in assay [2] of 1.8 µM.

In the case of `COc1cc(C2CC2)cc(OC)c1-c1nc2c(n1C(C)C)[C@]1(C(=O)Nc3cc(Cl)ccc31)N(c1cc(Cl)ccc1C)C2=O` [Example R-108, (R)-6-chloro-5′-(5-chloro-2-methylphenyl)-2′-(4-cyclopropyl-2,6-dimethoxyphenyl)-3′-isopropyl-3′H-spiro[dihydroindole-3,4′-pyrrolo[3,4-d]imidazole]-2,6′(5′H)-dione], the IC50 in assay [2] was found to be 0.691 µM.
